According to ChEMBL document CHEMBL1152560, “Substituted 2-arylbenzothiazoles as kinase inhibitors: hit-to-lead optimization” (Bioorg Med Chem, 2009):

Experiments:
[1] = target: Vascular endothelial growth factor receptor 1 (Homo sapiens) (UniProt P17948); test: Residual activity of VEGFR1 at 1 uM by microplate scintillation counting
[2] = target: Tyrosine-protein kinase FRK (Homo sapiens) (UniProt P42685); test: Residual activity of FRK at 0.1 uM by microplate scintillation counting
[3] = target: T1, Eukaryotic elongation factor 2 kinase (Homo sapiens) (UniProt O00418); test: Residual activity of EEF2K at 0.1 uM by microplate scintillation counting
T1 sequence (whole entry): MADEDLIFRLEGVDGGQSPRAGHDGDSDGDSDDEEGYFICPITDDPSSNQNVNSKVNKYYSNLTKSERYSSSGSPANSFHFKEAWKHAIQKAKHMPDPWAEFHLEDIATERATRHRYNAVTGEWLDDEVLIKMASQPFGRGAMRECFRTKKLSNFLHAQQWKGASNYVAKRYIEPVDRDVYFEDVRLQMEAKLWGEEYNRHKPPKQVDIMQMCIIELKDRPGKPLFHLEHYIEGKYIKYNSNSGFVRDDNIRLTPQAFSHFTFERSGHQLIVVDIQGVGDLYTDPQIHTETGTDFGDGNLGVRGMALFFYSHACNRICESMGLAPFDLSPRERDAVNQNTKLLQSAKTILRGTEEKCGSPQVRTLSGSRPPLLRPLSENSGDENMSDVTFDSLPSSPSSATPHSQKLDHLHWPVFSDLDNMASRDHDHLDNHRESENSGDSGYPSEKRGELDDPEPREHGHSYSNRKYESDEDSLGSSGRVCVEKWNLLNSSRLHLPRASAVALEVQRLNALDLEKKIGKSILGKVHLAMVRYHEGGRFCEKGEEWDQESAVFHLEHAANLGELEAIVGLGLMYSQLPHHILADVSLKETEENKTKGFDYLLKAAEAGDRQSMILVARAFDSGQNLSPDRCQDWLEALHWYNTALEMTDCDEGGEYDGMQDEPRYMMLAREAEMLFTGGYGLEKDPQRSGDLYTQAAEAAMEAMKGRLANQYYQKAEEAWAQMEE

[4] = target: Casein kinase II subunit alpha (Homo sapiens) (UniProt P68400); test: Residual activity of CK2alpha1 at 0.1 uM by microplate scintillation counting
Sequence of Casein kinase II subunit alpha (Homo sapiens) (P68400 whole entry, looked up): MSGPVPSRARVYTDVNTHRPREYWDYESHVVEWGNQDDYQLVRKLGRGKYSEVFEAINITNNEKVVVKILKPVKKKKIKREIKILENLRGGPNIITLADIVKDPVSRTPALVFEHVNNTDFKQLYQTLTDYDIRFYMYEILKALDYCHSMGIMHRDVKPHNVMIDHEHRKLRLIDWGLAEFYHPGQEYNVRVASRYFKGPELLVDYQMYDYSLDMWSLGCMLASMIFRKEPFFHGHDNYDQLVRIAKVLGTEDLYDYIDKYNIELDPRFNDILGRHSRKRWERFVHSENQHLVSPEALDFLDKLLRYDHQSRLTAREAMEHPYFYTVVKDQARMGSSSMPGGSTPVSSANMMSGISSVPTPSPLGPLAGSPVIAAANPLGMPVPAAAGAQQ

[5] = target: Fibroblast growth factor receptor 4 (Homo sapiens) (UniProt P22455); test: Residual activity of FGFR4 at 10 uM by microplate scintillation counting
Sequence of Fibroblast growth factor receptor 4 (Homo sapiens) (P22455 22-802 limits assumed): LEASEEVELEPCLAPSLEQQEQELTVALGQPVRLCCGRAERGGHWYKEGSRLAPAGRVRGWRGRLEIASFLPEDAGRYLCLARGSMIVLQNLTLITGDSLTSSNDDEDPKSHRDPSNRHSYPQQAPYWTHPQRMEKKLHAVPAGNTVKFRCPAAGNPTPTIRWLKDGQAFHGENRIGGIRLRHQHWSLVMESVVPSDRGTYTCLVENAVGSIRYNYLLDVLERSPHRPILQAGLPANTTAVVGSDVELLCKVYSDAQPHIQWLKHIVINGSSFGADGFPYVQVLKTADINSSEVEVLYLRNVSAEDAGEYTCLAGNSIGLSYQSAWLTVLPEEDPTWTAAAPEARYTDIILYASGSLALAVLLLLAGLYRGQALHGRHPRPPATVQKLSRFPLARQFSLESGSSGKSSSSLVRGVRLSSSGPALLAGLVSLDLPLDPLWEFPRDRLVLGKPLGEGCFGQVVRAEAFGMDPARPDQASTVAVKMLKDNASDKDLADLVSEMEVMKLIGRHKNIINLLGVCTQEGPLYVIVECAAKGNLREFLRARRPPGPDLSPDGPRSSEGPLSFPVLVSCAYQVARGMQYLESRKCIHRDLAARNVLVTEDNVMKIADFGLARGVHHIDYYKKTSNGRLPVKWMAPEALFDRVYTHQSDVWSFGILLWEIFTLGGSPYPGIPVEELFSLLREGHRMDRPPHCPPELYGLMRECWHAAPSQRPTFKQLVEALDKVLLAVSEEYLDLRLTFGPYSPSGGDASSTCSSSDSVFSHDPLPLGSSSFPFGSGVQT

[6] = target: Serine/threonine-protein kinase pim-1 (Homo sapiens) (UniProt P11309); test: Residual activity of PIM1 at 1 uM by microplate scintillation counting
Sequence of Serine/threonine-protein kinase pim-1 (Homo sapiens) (P11309 whole entry, looked up): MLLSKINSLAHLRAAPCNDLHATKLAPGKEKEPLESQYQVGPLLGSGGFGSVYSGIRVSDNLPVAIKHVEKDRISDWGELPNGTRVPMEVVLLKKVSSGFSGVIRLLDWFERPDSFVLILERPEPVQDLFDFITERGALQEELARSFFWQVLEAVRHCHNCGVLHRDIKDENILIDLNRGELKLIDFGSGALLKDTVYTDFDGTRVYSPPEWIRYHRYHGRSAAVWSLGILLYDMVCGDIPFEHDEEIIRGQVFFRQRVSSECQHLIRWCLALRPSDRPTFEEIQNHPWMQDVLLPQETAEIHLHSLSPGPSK

[7] = target: T2, Ephrin type-B receptor 4 (Homo sapiens) (UniProt P54760); test: Residual activity of EPHB4 at 0.1 uM by microplate scintillation counting
T2 sequence (whole entry): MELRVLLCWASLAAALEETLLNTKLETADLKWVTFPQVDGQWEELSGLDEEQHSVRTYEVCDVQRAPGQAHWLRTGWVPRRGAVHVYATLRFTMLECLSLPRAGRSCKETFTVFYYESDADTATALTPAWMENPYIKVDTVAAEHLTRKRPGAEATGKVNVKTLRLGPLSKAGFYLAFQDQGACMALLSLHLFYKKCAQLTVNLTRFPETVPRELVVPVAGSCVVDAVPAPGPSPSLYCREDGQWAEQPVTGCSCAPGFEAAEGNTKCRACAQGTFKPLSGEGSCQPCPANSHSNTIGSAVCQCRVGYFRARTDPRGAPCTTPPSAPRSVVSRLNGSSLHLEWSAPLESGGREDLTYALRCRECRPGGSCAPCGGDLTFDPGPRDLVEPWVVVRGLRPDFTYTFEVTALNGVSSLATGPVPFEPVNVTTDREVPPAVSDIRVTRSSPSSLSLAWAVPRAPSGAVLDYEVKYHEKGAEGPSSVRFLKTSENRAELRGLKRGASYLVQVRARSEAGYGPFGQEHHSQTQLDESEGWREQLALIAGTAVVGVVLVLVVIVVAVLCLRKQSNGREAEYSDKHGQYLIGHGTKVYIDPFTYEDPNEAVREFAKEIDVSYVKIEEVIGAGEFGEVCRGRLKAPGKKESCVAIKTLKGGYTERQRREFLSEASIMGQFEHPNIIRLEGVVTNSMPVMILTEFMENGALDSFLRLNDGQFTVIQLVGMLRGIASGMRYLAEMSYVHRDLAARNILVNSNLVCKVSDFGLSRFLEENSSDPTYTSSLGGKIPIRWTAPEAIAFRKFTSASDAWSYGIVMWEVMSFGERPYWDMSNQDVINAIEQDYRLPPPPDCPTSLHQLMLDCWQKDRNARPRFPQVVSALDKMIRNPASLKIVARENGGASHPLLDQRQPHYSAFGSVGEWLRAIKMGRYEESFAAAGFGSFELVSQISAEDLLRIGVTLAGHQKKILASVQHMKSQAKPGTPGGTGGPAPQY

Sequence of Vascular endothelial growth factor receptor 1 (Homo sapiens) (P17948 whole entry): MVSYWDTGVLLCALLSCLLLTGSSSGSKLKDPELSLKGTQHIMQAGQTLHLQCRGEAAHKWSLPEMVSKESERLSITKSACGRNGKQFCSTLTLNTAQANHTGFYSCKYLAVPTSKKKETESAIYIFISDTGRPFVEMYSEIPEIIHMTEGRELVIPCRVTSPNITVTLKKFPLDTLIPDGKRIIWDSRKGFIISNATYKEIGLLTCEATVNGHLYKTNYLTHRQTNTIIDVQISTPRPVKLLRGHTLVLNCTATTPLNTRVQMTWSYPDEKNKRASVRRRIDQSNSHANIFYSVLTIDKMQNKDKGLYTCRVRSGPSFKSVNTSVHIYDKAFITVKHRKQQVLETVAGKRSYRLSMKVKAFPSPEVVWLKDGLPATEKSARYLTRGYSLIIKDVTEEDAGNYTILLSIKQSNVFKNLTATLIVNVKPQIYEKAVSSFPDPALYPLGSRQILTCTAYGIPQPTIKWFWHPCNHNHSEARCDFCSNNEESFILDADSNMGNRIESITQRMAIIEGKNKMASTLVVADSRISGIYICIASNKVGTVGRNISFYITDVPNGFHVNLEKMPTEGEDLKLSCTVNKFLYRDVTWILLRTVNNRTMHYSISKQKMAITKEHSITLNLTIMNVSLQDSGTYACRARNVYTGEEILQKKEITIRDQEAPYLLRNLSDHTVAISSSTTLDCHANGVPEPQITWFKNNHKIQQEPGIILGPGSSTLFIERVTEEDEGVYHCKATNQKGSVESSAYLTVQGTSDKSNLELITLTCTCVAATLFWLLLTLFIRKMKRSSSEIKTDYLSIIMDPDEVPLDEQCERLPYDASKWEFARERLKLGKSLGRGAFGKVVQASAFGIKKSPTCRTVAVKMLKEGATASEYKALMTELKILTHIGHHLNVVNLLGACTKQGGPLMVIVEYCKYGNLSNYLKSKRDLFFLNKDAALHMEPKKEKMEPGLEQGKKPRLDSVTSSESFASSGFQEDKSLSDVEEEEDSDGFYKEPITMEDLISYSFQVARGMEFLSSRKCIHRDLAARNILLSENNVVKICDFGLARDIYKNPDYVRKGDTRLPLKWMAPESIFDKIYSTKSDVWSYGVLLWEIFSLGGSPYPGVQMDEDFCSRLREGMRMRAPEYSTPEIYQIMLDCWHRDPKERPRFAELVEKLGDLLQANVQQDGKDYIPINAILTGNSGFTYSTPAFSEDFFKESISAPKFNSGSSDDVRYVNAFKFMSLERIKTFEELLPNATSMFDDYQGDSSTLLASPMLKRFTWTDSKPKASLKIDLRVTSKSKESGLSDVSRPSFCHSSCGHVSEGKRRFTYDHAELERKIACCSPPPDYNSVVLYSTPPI
Sequence of Tyrosine-protein kinase FRK (Homo sapiens) (P42685 whole entry): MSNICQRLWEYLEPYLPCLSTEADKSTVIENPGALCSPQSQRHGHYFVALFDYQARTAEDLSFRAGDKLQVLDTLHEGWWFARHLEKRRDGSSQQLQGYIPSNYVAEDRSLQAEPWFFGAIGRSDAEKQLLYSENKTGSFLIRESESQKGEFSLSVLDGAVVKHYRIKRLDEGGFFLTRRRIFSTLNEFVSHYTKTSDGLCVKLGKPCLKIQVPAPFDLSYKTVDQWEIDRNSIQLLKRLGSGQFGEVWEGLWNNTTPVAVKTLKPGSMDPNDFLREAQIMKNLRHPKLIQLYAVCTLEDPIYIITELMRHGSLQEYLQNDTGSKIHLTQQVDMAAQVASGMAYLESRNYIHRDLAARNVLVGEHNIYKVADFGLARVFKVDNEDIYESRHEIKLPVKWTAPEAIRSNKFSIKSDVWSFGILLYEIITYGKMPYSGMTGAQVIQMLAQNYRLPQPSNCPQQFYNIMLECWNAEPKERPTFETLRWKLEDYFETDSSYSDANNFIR

residual activity [1] [%] | residual activity [2] [%] | residual activity [3] [%] | residual activity [4] [%] | residual activity [5] [%] | residual activity [6] [%] | residual activity [7] [%] | Compound
74 | 100 | 91 | 132 | 205 | 104 | 98 | COc1cc2c(Oc3ccc(-c4nc5ccccc5s4)cc3)ncnc2cc1OCCCN1CCCC1
75 | 100 | 92 | 95 | 287 | 109 | 108 | COc1cc2c(Oc3ccc(-c4nc5ccccc5s4)cc3)ncnc2cc1OCCCN1CCN(C)CC1
74 | 99 | 88 | 87 | 118 | 102 | 98 | COc1cc2c(Oc3ccc(-c4nc5ccccc5s4)cc3F)ncnc2cc1OCCCN1CCN(C)CC1
